US7235531B2, “Tachykinin-like polypeptides and use thereof” (Takeda Pharmaceutical Company, priority 1999, dated 2007)
No end group written: not given here.

Assays:
[1] = tested on: guinea pig ileum specimens; assay: Contracting activity of ATT(35-45) on guinea pig ileum specimens; type: cell-based; conditions: 10^−10 M to 3×10^−7 M
Protocol: The horizontal axis in the figure represents the dose (M) of ATT(35-45), and the vertical axis represents the rate of contraction relative to the contraction of the guinea pig ileum specimens induced by 10^-6 M acetylcholine.
The contracting activity of ATT(35-45) on guinea pig ileum specimens was determined in the following manner. 13 to 15-week old male guinea pigs (std: Hartley) were exsanguinated, and the ileum was excised. The ileum was cut to a length of 1.5 cm to prepare specimens. The specimens were aerated with a gas mixture (95% O^2-5% CO2) while suspended in Tyrode's solution (137.9 mM NaCl, 2.7 mM KCl, 1.8 mM CaCl2, 0.5 mM MgCl2, 1.1 mM NaH2PO4, 11.9 mM NaHCO3, and 5.6 mM glucose) maintained at 37° C., and the isotonic contractions under a 0.5 g load were recorded. The peptide was administered cumulatively in the organ bath.

[2] = tested on: anesthetized rats; assay: Activity of ATT(35-45) on blood pressure in anesthetized rats; type: in vivo, Male Wistar rats; conditions: for decrease in blood pressure: left femoral vein (i.v.), n=4, mean±standard deviation
Protocol: The activity of ATT(35-45) on blood pressure in anesthetized rats was determined in the following manner. Male Wistar rats (weighing 300 to 400 g, by CLEA Japan Inc.) were anesthetized with thiobutabarbital sodium (100 mg/kg i.p.), a catheter (SP-55) for measuring blood pressure connected to a transducer was inserted into the left carotid artery, and a catheter (SP-35) for intravenous administration was inserted into the left femoral vein. The peptide was dissolved in physiological saline containing 0.05% BSA, and doses of 0.01, 0.1, and 1 nmol/kg were administered through the left femoral vein. The blood pressure was continuously recorded on a polygraph (NEC Sanei).

## TGKASQFFGLM-NH2 [ATT(35-45), Thr-Gly-Lys-Ala-Ser-Gln-Phe-Phe-Gly-Leu-Met-NH2]
[1]
  contraction of guinea pig ileum specimens (in words): concentration-dependent contraction
[1]; guinea pig ileum
  maximum contraction relative to the contraction induced with 10^−6 M acetylcholine: about 90%
[2]; 0.01 nmol/kg
  decrease in blood pressure: 12.3±0.8 mmHg
[2]; 0.1 nmol/kg
  decrease in blood pressure: 21.5±1.8 mmHg
[2]; 1 nmol/kg
  decrease in blood pressure: 33.8±6.6 mmHg
[2]; doses of 0.01, 0.1 and 1 nmol/kg i.v.
  effect on blood pressure (in words): dose-dependent decreases in blood pressure
